Laboratory results: patent US4526891A, “Substituted alkyl amine derivatives of 6,11-dihydro-11-oxodibenz[b,e]oxepins” (Hoechst Roussel Pharmaceuticals Inc., priority 1983, dated 1985)
Read-outs that look alike come from different tables or passages of the source.

Tested on: 2-phenyl-1,4-benzoquinone-induced writhing
Assay: 2-phenyl-1,4-benzoquinone-induced writhing test in mice (analgesia)
Type: in vivo
Details: for ED50: Mus musculus
[1] = po, read-out: ED50 (dosage which exhibits 50% inhibition of writhing)

Work on `O=C1c2ccccc2COc2ccc(CCN3CCN(c4ccccc4)CC3)cc21` [1-[2-(6,11-Dihydro-11-oxodibenz[b,e]oxepin-2-yl)ethyl]-4-phenylpiperazine] yielded an ED50 (oral dose, ** ED50, 50% inhibition, read-out: ED50 (dosage which exhibits 50% inhibition of writhing)) of 25 mg/kg.

`CN(C)CCc1ccc2c(c1)C(=O)c1ccccc1CO2.Cl` [2-(6,11-Dihydro-11-oxodibenz[b,e]oxepin-2-yl)-N,N-dimethylethylamine hydrochloride] was tested, and the “% Inhibition of writhing” value (25 mg/kg of body weight, subcutaneously (*)) was 66%.

For `CNCCc1ccc2c(c1)C(=O)c1ccccc1CO2.Cl` [2-(6,11-Dihydro-11-oxodibenz[b,e]oxepin-2-yl)-N-methylethylamine hydrochloride], the ED50 [1] was 9.8 mg/kg.

Molecule `Cl.NCCc1ccc2c(c1)C(=O)c1ccccc1CO2` [2-(6,11-Dihydro-11-oxodibenz[b,e]oxepin-2-yl)ethylamine hydrochloride] has an ED50 [1] of 7.4 mg/kg.

Molecule `CCC(=O)O[C@](Cc1ccccc1)(c1ccccc1)[C@H](C)CN(C)C` [propoxyphene, reference compound] has an ED50 (sc, read-out: dose giving 50% inhibition of writhing (ED50)) of 3.9 mg/kg.
